The data set is described as follows: gradient 5% acetonitrile 3 min, to 50% in 2 min, to 85% in 15 min, held 3 min, 100 µL/min. Conditions: column: Zorbax Extend-C18 2.1 x 50 mm; eluents: water / acetonitrile, 0.1% formic acid. A digest of the protocol:
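Values are retention times taken from adduct peaks that software picked and an analyst inspected. The pure standards were run as mixtures of ~100 molecules on HPLC linked to a quadrupole time-of-flight mass spectrometer, in positive and negative ionization mode. A Zorbax Extend-C18 column (2.1 × 50 mm, 1.8 μm) was used at 100 μL/min with water and acetonitrile, each including 0.1% formic acid.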
As for `O=C(c1ccccc1F)N1CCC(CNC(=O)C2(c3ccccc3)CCOCC2)CC1`, the RP-LC retention time came out at 706 s.

As to `CCC(c1cccs1)N1C(=O)[C@H]2CN(S(=O)(=O)c3ccccc3)C[C@H]2C1=O` (stereo partly drawn), the RP-LC retention time was determined as 946 s.

In the case of `CCc1ccc(-n2ncc3c(=O)n(Cc4nc(-c5ccccc5OC)no4)cnc32)cc1`, the RP-LC retention time worked out at 1040 s.

Consider `CC1=C(c2ccc(C)cc2)S(=O)(=O)N=C1N1CCC(NC(=O)c2sccc2C)CC1`, for which the RP-LC retention time was found to be 596 s.

`CCc1ccc(-c2ccc(-n3nc(C)c(S(=O)(=O)N4CCCC4)c3C)nn2)cc1` showed an RP-LC retention time of 1170 s.

In turn, `Cc1nc2nc(-c3ccc(Cl)cc3)nn2c(C)c1CC(=O)N1CCCC1` came in with an RP-LC retention time of 780 s.

In turn, `CCOc1cccc(-c2noc(Cc3nnc(-c4ccc(C)c(F)c4)o3)n2)c1` displayed an RP-LC retention time of 1160 s.

Take `COc1ccc(C2(C(=O)NCC3Cn4cccc4C(=O)N3C)CC2)cc1` (stereo not drawn): the RP-LC retention time came to 707 s.

`O=C(Nc1nc(-c2ccccc2)cs1)c1ccc(F)cc1` came in with an RP-LC retention time of 995 s.

Compound `Cc1scc2nc(C3CCC3)nc(N3CCC(C(=O)N4CCN(c5ccccn5)CC4)CC3)c12` had an RP-LC retention time of 587 s.

Consider `CCC1CCCCN1C(=O)c1cnc2nc(C)ccc2c1Nc1cccc(C(=O)OC)c1` (stereo not drawn), for which the RP-LC retention time is 653 s.

As to `O=C(NC1CC1)c1c2c(nc3ccccc13)CCCC2`, the RP-LC retention time was 585 s.

For `O=C(Nc1ccc(C2(C(=O)NCc3ccc(F)c(Cl)c3)CCC2)cc1)C1CC1`, the RP-LC retention time was 903 s.

As to `CCOC(=O)c1noc2ncnc(NCc3cccc(OC)c3)c12`, the RP-LC retention time amounted to 971 s.

In the case of `CSc1ccc(CNC(=O)c2cn3ccccc3n2)cc1`, the RP-LC retention time came to 692 s.

In the case of `Cc1ccc(NC(=O)Cn2c(=O)n(-c3ccccc3)c(=O)c3c2cc(C)n3C)cc1F`, the RP-LC retention time was found to be 868 s.

`CC1=C(c2ccc(Cl)cc2)S(=O)(=O)N=C1N1CCC(NC(=O)C2CCOC2)CC1` (stereo not drawn) yielded an RP-LC retention time of 733 s.

Regarding `O=C(Cn1cnc2c(-c3ccc(F)cc3)csc2c1=O)NC1CCCC1`, the RP-LC retention time was 854 s.

In turn, `Cc1cc(NC(=O)Cn2c(=O)n(C(C)C)c3ccc(-c4noc(C)n4)cc32)no1` showed an RP-LC retention time of 755 s.

The compound `O=C(NCc1ccccc1Cl)C(=O)c1cn(CC(=O)N2CCCC2)c2ccccc12` came in with an RP-LC retention time of 968 s.

As to `C=Cc1ccc(CN2C(=O)N(c3ccc(F)cc3)c3ncccc3S2(=O)=O)cc1`, the RP-LC retention time stood at 886 s.

`Cc1cc([N+](=O)[O-])ccc1Nc1cccc(Cl)c1C` returned an RP-LC retention time of 1030 s.

`Cc1cnc(C2CN(Cc3cccc(C#N)c3)C2)n1Cc1ccccc1`: the RP-LC retention time amounted to 582 s.

On to `CC(C)CN1C(=O)c2ccccc2C(C(=O)NCc2cccnc2)C12CCCCC2` (stereo not drawn), for which the RP-LC retention time came out at 659 s.

`COc1ccc(C(=O)Nc2cc(-c3cccnc3)no2)c(OC)c1` registered an RP-LC retention time of 802 s.

In turn, `CN1CCN(CCNC(=O)C2CCN(c3nc4cccnc4s3)CC2)CC1` gave an RP-LC retention time of 555 s.

For `COc1ccccc1-c1ccc(=O)n(Cc2nc(-c3ccc(F)cc3)no2)n1`, the RP-LC retention time worked out at 995 s.

Consider `CCc1ccc2nc(NCc3ccccn3)sc2c1`, for which the RP-LC retention time turned out to be 621 s.

As for `CCN(CC)C(=O)c1ccc2c(c1)N(CC(=O)NCCOC)C(=O)CO2`, the RP-LC retention time stood at 624 s.

With `Cc1nnc(N2CCCC(C(=O)N3CCc4ccccc43)C2)c2nn(-c3ccc(Cl)cc3)c(C)c12` (stereo not drawn), the RP-LC retention time amounted to 850 s.

In the case of `Cc1ccc(Cl)cc1N1C(=O)CN(S(C)(=O)=O)CC1(C)C(=O)NCc1ccc(F)cc1` (stereo not drawn), the RP-LC retention time was 814 s.

The compound `Cc1nsc2ncc(C(=O)N3CCOCC3)c(N3CCC(C(=O)Nc4ccccc4Br)CC3)c12` gave an RP-LC retention time of 813 s.

In turn, `CCc1ccccc1NC(=O)N1CC(Cc2nncn2C(C)C)C1` displayed an RP-LC retention time of 646 s.

`Cc1cc(C)cc(NC(=O)N2CCCC2c2nc(-c3ccccc3)no2)c1` (stereo not drawn) displayed an RP-LC retention time of 922 s.

In turn, `Cc1ccccc1CNC(=O)CS(=O)Cc1cnn(-c2ccccc2)c1-n1cccc1` (stereo not drawn) yielded an RP-LC retention time of 875 s.

With `CCOC(=O)c1nc(Nc2ccc(OCC)cc2)c2ccccc2n1`, the RP-LC retention time stood at 806 s.

The compound `COc1ccc(CCS(=O)(=O)NCC2CCN(Cc3cccs3)CC2)cc1` yielded an RP-LC retention time of 564 s.

In turn, `Cc1noc(C2CN(C(=O)Nc3cc(F)cc(F)c3)CC23CCOCC3)n1` (stereo not drawn) showed an RP-LC retention time of 726 s.

The compound `CCN1CCN(CCCNC(=O)c2c(N3CCCC3=O)c3cc(F)ccc3n2CC)CC1` registered an RP-LC retention time of 602 s.

For `O=C(CCc1ccccc1)Nc1nnc(C2CC(=O)N(c3ccc(Cl)cc3)C2)o1` (stereo not drawn), the RP-LC retention time was 805 s.

As to `Cc1[nH]c(C)c(S(=O)(=O)N2CCC(C(=O)Nc3cccc(F)c3)CC2)c1C(=O)N1CCCC1`, the RP-LC retention time turned out to be 720 s.

`CCOC(=O)c1[nH]c(C)c(C(=O)C(C)N(Cc2ccc(F)cc2)C(=O)C(C)C)c1C` (stereo not drawn) came in with an RP-LC retention time of 950 s.

In turn, `CCOc1ccc(S(=O)(=O)[C@H]2CS(=O)(=O)C[C@@H]2N2CCN(c3ccccn3)CC2)cc1` had an RP-LC retention time of 640 s.

Consider `Cc1cc(C(=O)NCC(O)c2cccc3ccccc23)c(C)o1` (stereo not drawn), for which the RP-LC retention time amounted to 801 s.

Turning to `COCCn1cc(CCNC(=O)Nc2cccc(F)c2C)c2cccnc21`, the RP-LC retention time is 774 s.

For the compound `COc1cccc(CN2N=C(C(=O)N3CCC(C)CC3)S(=O)(=O)c3ccc(C)cc32)c1`, the RP-LC retention time is 674 s.

The compound `COc1ccc(-c2nc(NCCN3CCC(C)CC3)c3ccccc3n2)cc1` gave an RP-LC retention time of 580 s.

Compound `COc1ccc(C(=O)Nc2nc(-c3ccc4c(c3)NC(=O)CO4)cs2)cc1OC` yielded an RP-LC retention time of 801 s.

In the case of `Cc1cccc(C)c1NC(=O)C1CCCN1S(=O)(=O)c1cc2c(cc1Cl)NC(=O)CO2` (stereo not drawn), the RP-LC retention time is 778 s.

With `Cc1noc(C)c1Cc1ccc(C(=O)N2CCC(N3C[C@H](O)C[C@H]3C(=O)NC3CCCCC3)CC2)o1`, the RP-LC retention time turned out to be 656 s.

Turning to `CC(=O)c1ccc(NC(=O)N2C[C@@H]3C[C@H]2C[C@@H]3NC(=O)c2ccccc2)cc1`, the RP-LC retention time came out at 681 s.

Regarding `O=C(Cc1c[nH]c2ccccc12)N1CCN2CCS(=O)(=O)N(C3CC3)C(=O)C2C1` (stereo not drawn), the RP-LC retention time turned out to be 743 s.

In turn, `CCOC(=O)c1c(C)[nH]c(C)c1S(=O)(=O)N1CCC(C(=O)N2CCn3c2nc2ccccc23)CC1` yielded an RP-LC retention time of 725 s.

Take `O=C(Cn1nc2nc(N3CCOCC3)ccn2c1=O)Nc1ccc(F)c(F)c1`: the RP-LC retention time was determined as 666 s.

`Cc1ccccc1NC(=O)Cc1cn2cc(Cl)ccc2n1` gave an RP-LC retention time of 620 s.

`COCc1cc(=O)n(CC(=O)Nc2c(C)cccc2C)c(N)n1` gave an RP-LC retention time of 604 s.

Compound `Cc1cccc2nnc(N3CCC(C(=O)N4CCOCC4)CC3)n12` registered an RP-LC retention time of 568 s.

Compound `Cc1ccc(-c2ccc(N3CCCC(C(=O)N4CCCC4)C3)nn2)cc1` (stereo not drawn) displayed an RP-LC retention time of 647 s.

In the case of `COc1ccc(N2CCN(C(=O)c3cn4nc(OC)ccc4n3)CC2)cc1`, the RP-LC retention time was found to be 683 s.

In turn, `CC(=O)N1CCCC1c1nc(C2CN(C(=O)c3ccsc3)C2)no1` (stereo not drawn) yielded an RP-LC retention time of 629 s.

`CC(=O)N1CCc2cc(N3CC(C(=O)Nc4cc(F)ccc4Cl)CC3=O)ccc21` (stereo not drawn) yielded an RP-LC retention time of 749 s.

On to `Cc1cc(-c2nnc(C3CC3)o2)c(C)n1CC(=O)Nc1cccc(F)c1`, for which the RP-LC retention time is 825 s.

In turn, `CCOc1ccc(-n2nnnc2CN2CCN(C(=O)c3cccs3)CC2)cc1` showed an RP-LC retention time of 746 s.

Consider `O=C(CN1c2ccc(F)cc2-c2ccccc2S1(=O)=O)N1CCN(Cc2ccccc2)CC1`, for which the RP-LC retention time is 711 s.

Take `CC1CCCCN1c1cc(-n2cnc(C(=O)Nc3ccc4c(c3)OCCO4)c2)ncn1` (stereo not drawn): the RP-LC retention time worked out at 1040 s.

Compound `O=C(NCc1ccccc1)c1ccc(=O)n(CCN2CCCC2)c1` came in with an RP-LC retention time of 579 s.

In turn, `CCc1ccc(NC(=O)c2cc3sc(Cl)cc3n2C)cc1` came in with an RP-LC retention time of 1210 s.

`Cc1sc2cc(C(=O)N3CCCC3)[nH]c2c1CN1CCCCC1` had an RP-LC retention time of 646 s.

For the compound `COc1ccc(OC)c(S(=O)(=O)N2CCCC(C)(C(=O)NCc3ccc(F)cc3)C2)c1` (stereo not drawn), the RP-LC retention time amounted to 916 s.

For the compound `Cc1nc2cc(-c3noc(-c4ccc(C)c(C)c4)n3)ccc2o1`, the RP-LC retention time is 1280 s.

The compound `COc1cccc(S(=O)(=O)N2CCN(C3=CC4=NC(C)CN4C=N3)CC2)c1` (stereo not drawn) returned an RP-LC retention time of 648 s.

Compound `COc1ccc2nc(-c3ccc(NS(=O)(=O)c4ccccc4C(F)(F)F)cc3)cn2n1` displayed an RP-LC retention time of 792 s.

`CCOC(=O)c1cnc(Nc2nc(C)c3cc(OC)ccc3n2)nc1C` gave an RP-LC retention time of 681 s.

Turning to `O=C(CCC1CCCN(S(=O)(=O)c2ccccc2F)C1)NC1CCS(=O)(=O)C1` (stereo not drawn), the RP-LC retention time turned out to be 748 s.

`CC1CC(=O)c2cnc(N3CCN(Cc4ccccc4)CC3)nc2C1` (stereo not drawn) registered an RP-LC retention time of 643 s.

`COCc1cc(=O)n(CC(=O)Nc2ccc(F)cc2)c(N2CCOCC2)n1` came in with an RP-LC retention time of 797 s.

In the case of `Cc1ccc(CCNC(=O)C2CCCN(S(=O)(=O)c3cc(-c4noc(C)n4)cs3)C2)cc1` (stereo not drawn), the RP-LC retention time was determined as 1060 s.

As to `Cc1nc(-c2csc(S(=O)(=O)N3CCCC(C(=O)NCc4ccccc4C)C3)c2)no1` (stereo not drawn), the RP-LC retention time stood at 983 s.
